Experiments:
[1] = In vitro stability in phosphate-buffered saline and fetal bovine serum (radio-HPLC); format: in vitro ADME; conditions: 24 h incubation in phosphate-buffered saline and fetal bovine serum
[2] = tested on: HT-1080-FAP tumors; experiment: Ex vivo biodistribution of ^177Lu-labeled FAPIs in HT-1080-FAP tumor-bearing mice; conditions: for tumor uptake: HT-1080-FAP tumors
Description: (§1) All animal experimental procedures were approved by the Animal Care and Ethics Committee of Xiamen University and performed in accordance with the Guidelines for the Care and Use of Animals of the Xiamen University Laboratory Animal Center. For in vivo experiments, 6-wk-old BALB/c nude mice (Beijing Vital River Laboratory Animal Technology Co., Ltd.) were subcutaneously inoculated with HT-1080-FAP or U87 cells (5 × 10^6 in 100 μL of phosphate-buffered saline) in the right shoulder.
Three groups of HT-1080-FAP mice were injected with 0.74 MBq of ^177Lu-FAPI-46, ^177Lu-DOTA-2P(FAPI)2, or ^177Lu-DOTA-4P(FAPI)4 and were euthanized at different time points (24–48 h for monomers and 24–96 h for dimers and tetramers, 3/group). Blood, tumor, muscle, and major organs were weighed and measured using a γ-counter (WIZARD^2 2480). Data were normalized to the percentage injected dose per gram (%ID/g) using 1% of total counts.

[3] = tested on: HT-1080-FAP tumors; experiment: FAP-targeted radioligand therapy in HT-1080-FAP tumor-bearing mice; format: in vivo
Description: as §1
(§2) When the tumor volume reached approximately 100 mm^3, the mice were randomized into 4 groups for radioligand therapy with ^177Lu-labeled monomeric, dimeric, and tetrameric FAPIs (6/group): group A, saline; group B, 29.6 MBq of ^177Lu-FAPI-46; group C, 29.6 MBq of ^177Lu-DOTA-2P(FAPI)2; and group D, 29.6 MBq of ^177Lu-DOTA-4P(FAPI)4. […] HT-1080-FAP, a FAP-transfected tumor xenograft with much higher levels of FAP expression than U87MG, was also used in this study. Therefore, the frequency of administration was higher in U87MG tumor–bearing mice (every 72 h, 3 doses in total) than in the HT-1080-FAP models (a single dose). Weight and tumor volume were monitored every 2 d, and the mice were euthanized when the average tumor volume exceeded 1,500 mm^3, when the tumor was ulcerated, or when weight loss was more than 20%. To further assess radioligand therapy–related toxicity effects, the main organs were collected from the ^177Lu-DOTA-4P(FAPI)4 group on day 22 after hematoxylin and eosin staining ([16]).

[4] = tested on: U87MG tumors; experiment: FAP-targeted radioligand therapy in U87MG tumor-bearing mice; format: in vivo; conditions: 29.6 MBq every 72 h, 3 doses
Description: as §1
as §2, with “To further assess radioligand therapy–related toxicity effects, the main organs were collected from the ^177Lu-DOTA-4P(FAPI)4 group on day 22 after hematoxylin and eosin staining ([16]).” left out

[5] = target: T1, FAP (FAP-positive HT-1080-FAP cells) (Homo sapiens, UniProt Q12884); experiment: Competitive cell-binding assay against ^68Ga-FAPI-46; conditions: competition with ^68Ga-FAPI-46, 60 min, read-out: 50% inhibitory concentration
T1 construct: expressed in transfected cells; host or cells: HT-1080 human fibrosarcoma cells, stably transfected (HT-1080-FAP)
T1 sequence (Q12884 1-760): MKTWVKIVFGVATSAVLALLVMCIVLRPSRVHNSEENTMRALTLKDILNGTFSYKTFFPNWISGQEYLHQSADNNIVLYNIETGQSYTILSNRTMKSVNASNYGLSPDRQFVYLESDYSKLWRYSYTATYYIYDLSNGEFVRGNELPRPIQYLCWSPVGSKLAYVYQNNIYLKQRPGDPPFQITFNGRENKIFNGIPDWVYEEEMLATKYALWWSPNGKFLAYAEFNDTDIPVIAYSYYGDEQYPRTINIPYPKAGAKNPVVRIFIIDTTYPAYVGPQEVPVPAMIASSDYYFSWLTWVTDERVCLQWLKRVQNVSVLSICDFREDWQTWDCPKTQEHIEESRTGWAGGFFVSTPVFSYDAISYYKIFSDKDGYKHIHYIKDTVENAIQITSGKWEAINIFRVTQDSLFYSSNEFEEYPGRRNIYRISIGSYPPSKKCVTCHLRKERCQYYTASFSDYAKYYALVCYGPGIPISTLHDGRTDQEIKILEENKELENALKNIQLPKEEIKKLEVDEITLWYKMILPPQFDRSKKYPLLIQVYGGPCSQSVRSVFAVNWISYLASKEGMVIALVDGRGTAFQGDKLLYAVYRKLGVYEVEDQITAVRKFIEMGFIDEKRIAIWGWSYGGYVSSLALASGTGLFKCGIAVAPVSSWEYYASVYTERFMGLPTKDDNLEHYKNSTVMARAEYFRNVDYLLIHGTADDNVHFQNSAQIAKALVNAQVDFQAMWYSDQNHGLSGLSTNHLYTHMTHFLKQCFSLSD
Description: A human fibrosarcoma cell line was stably transfected with FAP (HT-1080-FAP) and cultured, as previously described ([15]). A human glioblastoma cell line (U87MG, from the Chinese National Infrastructure of Cell Line Resource) was cultured in Dulbecco modified Eagle medium (Thermo Fischer Scientific) supplemented with 10% fetal bovine serum (Thermo Fisher Scientific). HT-1080-FAP cells were seeded in 24-well plates using RPMI 1640 medium with 10% fetal bovine serum, and the medium was replaced with fresh medium without fetal bovine serum when the cells reached 80%–90% density. ^68Ga-FAPI-46, ^68Ga-DOTA-2P(FAPI)2, ^68Ga-DOTA-4P(FAPI)4, or ^68Ga-DOTA-4P(FAPI)4 with 11.3 nmol of unlabeled FAPI-46 (for the blocking experiment) were added to the 24-well plates and incubated for 60, 90, and 120 min. For the competitive cell-binding assay, a gradient concentration (5.6 × 10^−13 to 10^−5 M) of FAPI-46, DOTA-2P(FAPI)2, or DOTA-4P(FAPI)4 was added to the cells and incubated with ^68Ga-FAPI-46 for 60 min. […] The radioactivity (counts per minute) was determined with a γ-counter (WIZARD^2 2480; PerkinElmer Inc.). […] The 50% inhibitory concentrations were determined by fitting a nonlinear regression model to the data using Prism software, version 8 (GraphPad Software Inc.).

[6] = HT-1080-FAP tumor-bearing mice, 48 h after injection

SMILES: CN(CCCN1CCN(C(=O)COCCOCCOCCNC(=O)CCC(=O)NCCCC[C@H](NC(=O)CCC(=O)NCCOCCOCCOCC(=O)N2CCN(CCCN(C)c3ccc4nccc(C(=O)NCC(=O)N5CC(F)(F)C[C@H]5C#N)c4c3)CC2)C(=O)NCCCC[C@H](NC(=O)[C@H](CCCCNC(=O)CN2CCN(CC(=O)[O-])CCN(CC(=O)[O-])CCN(CC(=O)[O-])CC2)NC(=O)CCC(=O)NCCOCCOCCOCC(=O)N2CCN(CCCN(C)c3ccc4nccc(C(=O)NCC(=O)N5CC(F)(F)C[C@H]5C#N)c4c3)CC2)C(=O)NCCOCCOCCOCC(=O)N2CCN(CCCN(C)c3ccc4nccc(C(=O)NCC(=O)N5CC(F)(F)C[C@H]5C#N)c4c3)CC2)CC1)c1ccc2nccc(C(=O)NCC(=O)N3CC(F)(F)C[C@H]3C#N)c2c1.[177Lu+3] [^177Lu-DOTA-4P(FAPI)4]
- in vitro stability (demetallation / free radioactivity) [1]: highly stable
- in vitro stability (demetallation / free radioactivity) ([1]; listed as 177Lu-DOTA-4P[FAPI]4): neither significant demetallation nor free radioactivity was observed
- kidney uptake [2, 6]: 6.6 ± 0.2 %ID/g
- liver uptake [2, 6]: 6.3 ± 0.5 %ID/g
- spleen uptake [2, 6]: 5.1 ± 0.7 %ID/g
- tumor uptake ([2]; 24 h after injection): 21.4 ± 1.7 %ID/g
- tumor uptake ([2]; 48 h after injection): 19.2 ± 0.6 %ID/g
- tumor uptake ([2]; 72 h after injection): 18.8 ± 2.1 %ID/g
- tumor uptake ([2]; 96 h after injection): 14.8 ± 0.9 %ID/g
- systemic toxicity by monitoring body weight ([3]; HT-1080-FAP tumor-bearing mice, 29.6 MBq): No systemic toxicity
- tumor growth after radioligand therapy ([3]; HT-1080-FAP, single dose 29.6 MBq): significant inhibition of tumor growth
- hematoxylin and eosin staining of selected nontarget organs ([3]; organs collected on day 22, versus control): no differences between the control and radioligand therapy groups
- median survival [4]: not reached
- tumor volume ([4]; day 14 after treatment): 140.28 ± 76.36 mm^3

SMILES: CN(CCCN1CCN(C(=O)CN2CCN(CC(=O)O)CCN(CC(=O)O)CCN(CC(=O)O)CC2)CC1)c1ccc2nccc(C(=O)NCC(=O)N3CC(F)(F)C[C@H]3C#N)c2c1 [FAPI-46, reference compound]
- IC50 [5]: 11.4 nM

Source: publication PMC10478824, “Development of FAPI Tetramers to Improve Tumor Uptake and Efficacy of FAPI Radioligand Therapy” (Journal of Nuclear Medicine, 2023)
